Source: US6117849A, “S-(+)-adenosylmethionine and 3'-azido-2', 3'-dideoxy-nucleoside complexes as potent inhibitors of HIV-replication” (Symbio Herborn Group GmbH & Co., priority 1996, dated 2000)
Several values for one entry are separate records, joined by “and”; a condition that tells them apart may be missing. Equal entries are not always repeated. Where two headings read alike, the source gives them in different places.

Tests used:
[1] = test system: T-lymphocyte cell cultures; test: in vitro; conditions: for therapeutic index: in vitro, considering cytotoxicity
Method: (§1) Viability of the T cells was determined by means of a tetrazolium salt (MTT) metabolic assay.--(see also: Schwartz, O., et al., AIDS Rcs. Hum. Retroviruses, 4 441-448, 1988).

[2] = target: T1, reverse transcriptase (RT) (HIV-1 M:B_HXB2R, UniProt P04585); type: biochemical; set-up: A2: RT in cord-blood lymphocyte cultures infected with HIV from an AIDS patient; conditions: for Ki: RT
Method: The second in-vitro test uses the enzymatic activity of RT, testing the kinetic and inhibitory action of the molecular complexes. The cloning of the RT in biologically active form made it possible to have large quantities of the RT enzyme available for these studies (RT from Sigma, lot # R 9376).
The steady state reaction conditions for RT are chosen that approximate physiological conditions are met: pH 7.45 (37° C.), ionic strength of 150 mM, routinely a buffer was employed consisting of 50 mM TRIS-HCl, 100 mM KCl, 5 mM MgCl2, the addition of 10 μg/mL bovine serum albumin were included. […] The aforementioned precautions designed to avoid potential reduction of SAM in the presence of DTT are taken into accounts to preclude any distortions of the kinetic behavior of the RT enzyme in the presence of the various substrates e.g. as our molecular compounds. […] The enzyme concentrations of RT was approx. 20 nM, T-P (template-primer) […] and 25 μM of [^3 H]-dNTP (assay conditions are modified fro those of Mayunder et al., J. biol. Chem.,263, 15657, 1988). […] In case both parameters are effected to the same extent, then the inhibition is uncompetitive. In order to facilitate the difference between SAM kinetics and those for the molecular complexes we studied first SAM kinetics and subsequently the kinetics in the presence of the molecular complexes. […] Similar experiments have been carries out with dGTP.
The enzyme was assayed with 50 nM primer sites on poly (rA): oligo (dT), and variable concentrations of [^3 H] dTP as substrates in a reaction mixture as described above at pH 7.5 (37° C.).

[3] = target: T1, reverse transcriptase (RT); type: biochemical; set-up: A2: RT in cord-blood lymphocyte cultures infected with HIV from an AIDS patient; conditions: no DTT
in vitro = conditions: t-lymphocyte cultures
Method: as §1

[4] = target: T1, reverse transcriptase (RT); test: In vitro RT inhibition assay with F-dUP/F-dU or THF; type: biochemical; set-up: A2: RT in cord-blood lymphocyte cultures infected with HIV from an AIDS patient
HIV-1 isolate of HIV IIB = test: HIV replication in de novo infected lymphocyte cultures, viral core protein p24 endpoint; type: cell-based, HIV-1 (in human peripheral blood lymphocytes)
Method: For this purpose, SAM has been tested in a dose response titration ranging from 1000 μg/mL to 10 μg/mL final concentrations for the ability to inhibit HIV replication in de novo infected cells. Endpoint in this assay was the quantitative determination of the concentration of the viral core protein p24 as described by Mueller et al. (Mueller, Ch., Moritz, R., Prigge, G., Weitzel, D., Kunze, R., Kage, A., Koettgen, E., Fresenius Z. Anal. Chem.,330, 352-353, 1988). […] The toxicity testing of cellular proliferation was performed according to J. Mosmann (J. Immunological Methods, 65, 55-63, 1983). […] All experiments were carried out in triplicate cultures, including those for the various concentrations of the molecular complexes tested.--The lymphocytes were infected with a standardized preparation of HIV-1 isolate of HIV IIB. The cells were sedimented by low speed centrifugation, the sediment resuspended in the assay buffer (standard), and the resuspended cells were inoculated by adjusting to the following conditions: 100 ng of viral core protein p24/mL and 3200 pg HIV RNA/mL, respectively. Normally 3×10^8 lymphocytes were suspended in 1 mL if the HIV inoculum, and incubated at 37° C. for 60 minutes. After washing the cells twice with 50 mL of culture medium the cells were resuspended at a concentration of 3×10^6 cells/mL in culture medium which contains 10 units/mL of human recombinant interleukin-2. 100 μL of this cell suspension were added to 100 μL of the pre-diluted solution of the compounds to be tested, without adding any salt or protein. The entire assay was cultivated in humidified atmosphere in the presence of 5% CO2 at 37° C. After the 4th day of infection the viral replication was determined in the lymphocyte cultures. The end point of the titration was the determination of the viral core protein p24 in the supernatant of each of the lymphocyte cultures. 150 μL of the supernatant were removed and transferred to a vial containing 50 μL/well SDS at a final concentration of 0.08% (w/w). The concentration of the synthesized p24 by the HIV infected cells was determined according to Mueller et al., using recombinant p24 as a standard for calibration.

[5] = AZT; cited from earlier work
[6] = in vivo; cited from earlier work
[7] = SAM and AZT levels in HIV-infected patients (plasma, CSF)
[8] = target: T1, reverse transcriptase (RT); conditions: read-out: inhibiting concentration, 50% of RT activity; tosylate-bis-sulfate salt, with DTT; cited from earlier work
[9] = test system: human peripheral blood lymphocytes; test: Cell toxicity by proliferation test in lymphocyte cultures
Method: For this purpose, SAM has been tested in a dose response titration ranging from 1000 μg/mL to 10 μg/mL final concentrations for the ability to inhibit HIV replication in de novo infected cells. Endpoint in this assay was the quantitative determination of the concentration of the viral core protein p24 as described by Mueller et al. (Mueller, Ch., Moritz, R., Prigge, G., Weitzel, D., Kunze, R., Kage, A., Koettgen, E., Fresenius Z. Anal. Chem.,330, 352-353, 1988). […] The toxicity testing of cellular proliferation was performed according to J. Mosmann (J. Immunological Methods, 65, 55-63, 1983). […] All experiments were carried out in triplicate cultures, including those for the various concentrations of the molecular complexes tested.--The lymphocytes were infected with a standardized preparation of HIV-1 isolate of HIV IIB. The cells were sedimented by low speed centrifugation, the sediment resuspended in the assay buffer (standard), and the resuspended cells were inoculated by adjusting to the following conditions: 100 ng of viral core protein p24/mL and 3200 pg HIV RNA/mL, respectively. […] After the 4th day of infection the viral replication was determined in the lymphocyte cultures. […] The concentration of the synthesized p24 by the HIV infected cells was determined according to Mueller et al., using recombinant p24 as a standard for calibration.

HIV = HIV replication in T-lymphocyte cell cultures (cytotoxic effect and p24 production); type: cell-based
[10] = Stability / half-life in human plasma (chiral HPLC, fluorescence)
Source text: In order to determine the stability of these complexes in physiological conditions, the half-life times of the compounds were estimated in human plasma after separation on a chiral column and using a HPLC apparatus applying, monitoring the fluorescence of both components at 310 nm (excitation at 278 nm) after complete separation of the two peaks.

IL-β, IL-2 = test: Cytokine biosynthesis after stimulation of lymphocytes; type: cell-based; conditions: after phytohemagglutination stimulation
[11] = Intracellular metabolism to the triphosphate; type: in vitro ADME
[12] = rapidly dried in vacuo, water-free
bone marrow stem cells = conditions: vs AZT
[13] = test system: mitochondrial DNA replication; conditions: vs AZT
[14] = no DTT, pH 7.45-7.5, 37° C., read-out: KM
[15] = HIV replication, p24, standard conditions
[16] = addition of human serum albumin
[17] = 1 h, complex: 400 mg SAM equivalent 250 mg AZT

Work on “3'-azido-2',3'-2'-fluorothymidine [F))/AZT (AZT (2']” yielded a therapeutic index [1] of 7.000, a Ki ([2]; no DTT) of 100 ± 10 nM and a Km [2, 14] of 0.5 ± 0.01 µM. The kcat [3] was 0.0483 s⁻¹.

With “3'-azido-2',3'-dideoxyadennine [SAM/AZA]” the therapeutic index [1] was 4.500, the Ki ([2]; no DTT) was 280 ± 20 nM and the Km [2, 14] was 0.71 ± 0.02 µM. For the same molecule, the kcat [3] was 0.0283 s⁻¹.

For “3'-azido-2',3'-dideoxyguanosine [SAM/AZG]”, the therapeutic index [1] was 5.700, the Ki ([2]; no DTT) was 240 ± 10 nM and the Km [2, 14] was 0.7 ± 0.02 µM. The kcat [3] was 0.05 s⁻¹.

With 3'-azido-2',3'-dideoxyinosine [SAM/AZI] the Ki ([2]; no DTT) was 130 ± 15 nM, the Km ([2]; read-out: KM) was 0.41 ± 0.03 µM and the kcat [3] was 0.035 s⁻¹.

For 3'-azido-2',3'-dideoxyuridine [SAM/AZU], the Km ([2]; read-out: KM) was 0.69 ± 0.015 µM and the kcat [3] was 0.035 s⁻¹.

For `C[S+](CC[C@H](N)C(=O)O)C[C@H]1O[C@@H](n2cnc3c(N)ncnc32)[C@H](O)[C@@H]1O` (single isomer, unassigned) [SAM C1], the selectivity ratio (in vitro) was 2.1, the Km [2] was 0.53 ± 0.02 µM and the kcat [2] was 0.317 s⁻¹ and 0.25 s⁻¹.

With `c1ncc2c(n1)NCCN2` [5,6,7,8-tetrahydropteridine (THF), 5,6,7,8-tetrahydropteridine] the “effect on inhibition of RT” value [4] was “no significant inhibition of the RT”.

For `Cc1cn([C@H]2C[C@H](N=[N+]=[N-])[C@@H](CO)O2)c(=O)[nH]c1=O` [AZT, 3'-azido-2',3'-deoxythymidine], the “inhibition of HIV replication” value (HIV-1 isolate of HIV IIB; FIG. 1, p24) is given as “inhibited HIV replication in a dose dependent response”, the plasma half-life [5] is given as 1 h and the “side effects upon prolonged administration” value [6] is given as “peripheral neuropathological effects”. The “toxicity at increased dose” value [6] was “bone marrow toxicity”, the Cmax ([7]; human, plasma, 250 mg) was 2500 ng/mL and the kcat [2] was “approx. 1.5 sect^-1”.

With `O=c1[nH]c(=O)n([C@H]2C[C@H](O)[C@@H](CO)O2)cc1F` [F-dU] the “effect on inhibition of RT” value [4] was “no influence on the inhibition of RT”.

With `[3H]C12CNc3nc(N)[nH]c(=O)c3N1CN(c1ccc(C(=O)N[C@@H](CCC(=O)O)C(=O)O)cc1)C2` (stereo partly drawn) [N^5, N^10-methylene-6-[^3 H]-THF] the “effect on inhibition of RT” value [4] was “no significant inhibition of the RT”.

In the case of `C[S+](CC[C@H](N)C(=O)O)C[C@H]1O[C@@H](n2cnc3c(N)ncnc32)[C@H](O)[C@@H]1O` (stereo partly drawn) [SAM ts HSO4 H2 SO4], the selectivity ratio (in vitro) is given as 2.4, the IC50 [8] is given as 250000 to 501000 nM and the Km [2] is given as 0.51 ± 0.02 µM. For the same molecule, the kcat [2] was 0.333 s⁻¹ and 0.3 s⁻¹.

For `Nc1ccn([C@H]2CC[C@@H](CO)O2)c(=O)n1` [ddC], the “side effects upon prolonged administration” value [6] is given as “peripheral neuropathological effects”.

In the case of “(+)-SAM-3'-azido-2',3'-dideoxythymidine complex [SAM/AZT]”, the “inhibitory constant Ki(1), at 50% inhibition” value (HIV-1 isolate of HIV IIB; [15]) is reported as “≈ 0.9 ng/mL”, the “inhibitory constant Ki(2), at 50% inhibition” value (HIV-1 isolate of HIV IIB; [15]) is reported as “≈ 12.5 μg/mL” and the “Ki (first, low)” value (HIV-1 isolate of HIV IIB; [16]) is reported as 0.0005 to 0.0008 µg/mL. The “Ki (second, high)” value (HIV-1 isolate of HIV IIB; [16]) was about 10 µg/mL, the “Ki (first, low)” value (HIV-1 isolate of HIV IIB; ionic strength 0.075 M) was 0.0006 to 0.0008 µg/mL and the “Ki (second, high)” value (HIV-1 isolate of HIV IIB; ionic strength 0.075 M) was 8 to 10 µg/mL. The “increase of the cell toxicity” value ([9]; SAM-AZT complex compared with SAM alone) was “approx. 35%”, the “cell toxicity with respect to AZT alone” value ([9]; vs AZT alone) was “considerable of reduction of cell toxicity” and the maximum inhibition (HIV; inhibition of the cytotoxic effect) was 100%. The IC50 (HIV; p24 production, read-out: IC50, inhibition of p24 production) was 10 nM, the 50% cytotoxicity ([1]; MTT, as mass concentration of complex) was about 15.5 µg/mL and the CC50 ([1]; read-out: 50% cytotoxicity, MTT) was 250000 nM. The “half-life of SAM” value ([10]; from AZT-SAM complex) was “more than 10 h”, the “half-life of SAM, average” value ([10]; from AZT-SAM complex) was 12 h and the “half-life of AZT” value ([10]; from the complex, depends on load) was 2 to 3 h. For the same molecule, the “cytokine biosynthesis (IL-β, IL-2)” value (IL-β, IL-2) was “enhanced significantly”, the “accumulation / conversion to triphosphate” value [11] was “does not accumulate, but being readily converted to the triphosphate derivative” and the hygroscopicity [12] was “hygroscopic”. The “toxicity for bone marrow stem cells” value (bone marrow stem cells) was “less toxic than AZT”, the “toxicity/inhibition of mitochondrial DNA replication” value [13] was “less toxic as well as inhibitory to mitochondrial DNA replication” and the “AZT level (almost 50% of that in plasma)” value [7, 17] was 0.25 µg/mL. For the same molecule, the SAM level [7, 17] was 600 ng/mL, the pharmacokinetic behaviour ([7]; HIV patients) was “lower elimination rate for SAM” and the “dose reduction of AZT” value ([7]; administered as complex with SAM) was “approx. 30%”. The “increase of SAM and AZT levels in CSF and plasma” value ([7]; approved dose 250 mg AZT at 4 h intervals) was 25-30% and the “AZT level in plasma” value ([7]; complex: 400 mg SAM equivalent 250 mg AZT) was 0.543 µg/mL.
